The target in one experiment is HDAC6 human recombinant (Homo sapiens (Human), UniProt Q9UBN7). Kind of experiment: HDAC enzyme activity inhibition (in vitro), HDAC6 assay. It is filed as biochemical. To be noted: samples at 0.1, 1, 10, 100 and 1000 nM; 37° C. 60 minutes; fluorescence Ex 390, Em 460.
For a further experiment, the target named is HDAC1 (Homo sapiens (Human), UniProt Q13547). Kind of experiment: HDAC enzyme activity inhibition (in vitro), HDAC1 Fluorimetric Drug Discovery Assay Kit. It is filed as biochemical. To be noted: samples at 100, 1000 and 10000 nM; 37° C. 60 minutes; fluorescence Ex 390, Em 460.
Chain of HDAC1 (Q13547 whole entry): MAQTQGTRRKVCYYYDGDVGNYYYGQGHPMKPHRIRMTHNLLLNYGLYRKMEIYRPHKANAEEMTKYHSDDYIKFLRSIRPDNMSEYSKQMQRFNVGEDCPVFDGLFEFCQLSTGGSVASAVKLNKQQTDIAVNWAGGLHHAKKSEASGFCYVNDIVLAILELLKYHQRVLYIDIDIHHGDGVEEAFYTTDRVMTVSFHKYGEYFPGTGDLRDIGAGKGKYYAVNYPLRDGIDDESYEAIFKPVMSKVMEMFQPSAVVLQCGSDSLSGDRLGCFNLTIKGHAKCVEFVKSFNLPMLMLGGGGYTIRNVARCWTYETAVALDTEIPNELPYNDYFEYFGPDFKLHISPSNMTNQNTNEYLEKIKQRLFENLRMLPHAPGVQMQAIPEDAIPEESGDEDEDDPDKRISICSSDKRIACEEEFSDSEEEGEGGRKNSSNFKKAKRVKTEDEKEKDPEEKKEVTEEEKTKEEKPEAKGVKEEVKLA

Chain of HDAC6 human recombinant (Q9UBN7 whole entry): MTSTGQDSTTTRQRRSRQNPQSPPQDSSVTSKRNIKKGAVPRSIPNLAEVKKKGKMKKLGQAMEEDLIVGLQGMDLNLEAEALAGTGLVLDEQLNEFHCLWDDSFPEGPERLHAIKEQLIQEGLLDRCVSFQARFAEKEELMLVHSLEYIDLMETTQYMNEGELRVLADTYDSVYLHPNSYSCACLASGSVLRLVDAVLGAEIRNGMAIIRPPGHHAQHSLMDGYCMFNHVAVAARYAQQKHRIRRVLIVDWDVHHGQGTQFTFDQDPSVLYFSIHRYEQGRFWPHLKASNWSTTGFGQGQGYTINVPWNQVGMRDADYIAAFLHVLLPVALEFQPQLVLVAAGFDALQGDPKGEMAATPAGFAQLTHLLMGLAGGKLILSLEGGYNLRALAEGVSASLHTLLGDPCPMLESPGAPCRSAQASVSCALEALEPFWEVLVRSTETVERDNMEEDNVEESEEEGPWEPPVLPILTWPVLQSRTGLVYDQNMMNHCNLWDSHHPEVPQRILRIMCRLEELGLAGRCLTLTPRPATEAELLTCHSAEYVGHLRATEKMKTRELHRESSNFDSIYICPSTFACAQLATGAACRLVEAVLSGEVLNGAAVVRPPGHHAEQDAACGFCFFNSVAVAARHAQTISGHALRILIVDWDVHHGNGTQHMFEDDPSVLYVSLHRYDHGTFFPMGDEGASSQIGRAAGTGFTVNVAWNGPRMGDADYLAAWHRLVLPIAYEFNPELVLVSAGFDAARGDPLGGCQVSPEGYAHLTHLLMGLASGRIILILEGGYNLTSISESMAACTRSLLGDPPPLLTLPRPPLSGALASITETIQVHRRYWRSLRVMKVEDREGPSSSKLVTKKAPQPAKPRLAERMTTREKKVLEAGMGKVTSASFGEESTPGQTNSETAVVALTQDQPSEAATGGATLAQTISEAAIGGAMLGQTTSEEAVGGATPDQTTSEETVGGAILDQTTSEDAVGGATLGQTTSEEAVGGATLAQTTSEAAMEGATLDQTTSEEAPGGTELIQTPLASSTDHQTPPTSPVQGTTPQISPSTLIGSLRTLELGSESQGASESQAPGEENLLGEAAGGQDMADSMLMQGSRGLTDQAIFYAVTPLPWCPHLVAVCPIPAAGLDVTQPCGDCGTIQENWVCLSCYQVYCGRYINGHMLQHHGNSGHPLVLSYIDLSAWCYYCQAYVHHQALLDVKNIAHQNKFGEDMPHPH

The IC50 is the midpoint of a concentration-inhibition curve. For `CN(C)[C@@H]1CCN(c2ccc3c(c2)C(C)(C)C(=O)N(Cc2ccc(-c4nnc(C(F)F)o4)cn2)C3=O)C1` [Compound 32, (R)-2-((5-(5-(difluoromethyl)-1,3,4-oxadiazole-2-yl)pyridine-2-yl)methyl)-6-(3-(dimethylamino)pyrrolidine-1-yl)-4,4-dimethylisoquinoline-1,3(2H,4H)-dione], the half-inhibitory concentration (IC50) is 0.025 µM at HDAC6 human recombinant and above 10 µM at HDAC1.

`Cn1c(=O)n(Cc2ccc(-c3nnc(C(F)F)o3)cn2)c(=O)c2cc(-c3ccoc3)ccc21` [Compound 88, 3-((5-(5-(difluoromethyl)-1,3,4-oxadiazole-2-yl)pyridine-2-yl)methyl)-6-(furan-3-yl)-1-methylquinazoline-2,4(1H,3H)-dione]: the values for the IC50 on HDAC6 human recombinant and at HDAC1 were 0.021 µM and above 10 µM, respectively.

In the case of `CC(=O)N1CCC(c2ccc3c(c2)C(=O)N(Cc2ccc(-c4nnc(C(F)F)o4)cn2)C(=O)C3(C)C)CC1` [Compound 127, 7-(1-acetylpiperidine-4-yl)-2-((5-(5-(difluoromethyl)-1,3,4-oxadiazole-2-yl)pyridine-2-yl)methyl)-4,4-dimethylisoquinoline-1,3(2H,4H)-dione], the values for the half-maximal inhibitory concentration (IC50) at HDAC6 human recombinant and against HDAC1 were 0.017 µM and above 10 µM, respectively.

Consider `CN1CCC(c2ccc3c(c2)C(=O)N(Cc2ccc(-c4nnc(C(F)F)o4)cn2)C(=O)C3(C)C)CC1` [Compound 54, 2-((5-(5-(difluoromethyl)-1,3,4-oxadiazole-2-yl)pyridine-2-yl)methyl)-4,4-dimethyl-7-(1-methylpiperidine-4-yl)isoquinoline-1,3(2H,4H)-dione], for which the results for the IC50 on HDAC6 human recombinant and on HDAC1 were 0.042 µM and above 10 µM, respectively.

`CCN1CCN(c2ccc3c(c2)C(C)(C)C(=O)N(Cc2ccc(-c4nnc(C(F)F)o4)cn2)C3=O)CC1` [Compound 39, 2-((5-(5-(difluoromethyl)-1,3,4-oxadiazole-2-yl)pyridine-2-yl)methyl)-6-(4-ethylpiperazine-1-yl)-4,4-dimethylisoquinoline-1,3(2H,4H)-dione]: the IC50 on HDAC6 human recombinant is 0.018 µM; against HDAC1, above 10 µM.

In the case of `CC1(C)C(=O)N(Cc2ccc(-c3nnc(C(F)F)o3)cn2)C(=O)c2ccc(N3CCN(CC(F)(F)C(F)(F)C(F)(F)F)CC3)cc21` [Compound 140, 2-((5-(5-(difluoromethyl)-1,3,4-oxadiazole-2-yl)pyridine-2-yl)methyl)-6-(4-(2,2,3,3,4,4,4-heptafluorobutyl)piperazine-1-yl)-4,4-dimethylisoquinoline-1,3(2H,4H)-dione], the 50% inhibitory concentration (IC50) at HDAC6 human recombinant was 0.535 µM; on HDAC1, above 10 µM.

In the case of `CC1(C)C(=O)N(Cc2ccc(-c3nnc(C(F)F)o3)cn2)C(=O)c2cc(C3CCN(C4COC4)CC3)ccc21` [Compound 55, 2-((5-(5-(difluoromethyl)-1,3,4-oxadiazole-2-yl)pyridine-2-yl)methyl)-4,4-dimethyl-7-(1-(oxetan-3-yl)piperidine-4-yl)isoquinoline-1,3(2H,4H)-dione], the figures for the half-inhibitory concentration (IC50) on HDAC6 human recombinant and on HDAC1 were 0.02 µM and above 10 µM, respectively.

For the compound `Cc1noc(C)c1-c1cccc2c1C(=O)N(Cc1ccc(-c3nnc(C(F)F)o3)cn1)C(=O)C2(C)C` [Compound 96, 2-((5-(5-(difluoromethyl)-1,3,4-oxadiazole-2-yl)pyridine-2-yl)methyl)-8-(3,5-dimethylisooxazole-4-yl)-4,4-dimethylisoquinoline-1,3(2H,4H)-dione], the IC50 at HDAC6 human recombinant is 0.088 µM; against HDAC1, above 10 µM.

Consider `CC1(C)C(=O)N(Cc2ccc(-c3nnc(C(F)F)o3)cn2)C(=O)c2ccc(-c3ccco3)cc21` [Compound 74, 2-((5-(5-(difluoromethyl)-1,3,4-oxadiazole-2-yl)pyridine-2-yl)methyl)-6-(furan-2-yl)-4,4-dimethylisoquinoline-1,3(2H,4H)-dione], for which the IC50 is 0.049 µM on HDAC6 human recombinant and above 10 µM at HDAC1.

On to `Cn1c(=O)n(Cc2ccc(-c3nnc(C(F)F)o3)cn2)c(=O)c2cc(-c3ccncc3)ccc21` [Compound 92, 3-((5-(5-(difluoromethyl)-1,3,4-oxadiazole-2-yl)pyridine-2-yl)methyl)-1-methyl-6-(pyridine-4-yl)quinazoline-2,4(1H,3H)-dione], for which the IC50 was 0.035 µM on HDAC6 human recombinant and above 10 µM against HDAC1.

Regarding `CC(C)CN1CCN(c2ccc3c(c2)C(=O)N(Cc2ccc(-c4nnc(C(F)F)o4)cn2)C(=O)C3(C)C)CC1` [Compound 131, 2-((5-(5-(difluoromethyl)-1,3,4-oxadiazole-2-yl)pyridine-2-yl)methyl)-7-(4-isobutylpiperazine-1-yl)-4,4-dimethylisoquinoline-1,3(2H,4H)-dione], the values for the half-maximal inhibitory concentration (IC50) on HDAC6 human recombinant and at HDAC1 were 0.062 µM and above 10 µM, respectively.

On to `CC1(C)C(=O)N(Cc2ccc(-c3nnc(C(F)F)o3)cn2)C(=O)c2c(-c3ccncc3)cccc21` [Compound 84, 2-((5-(5-(difluoromethyl)-1,3,4-oxadiazole-2-yl)pyridine-2-yl)methyl)-4,4-dimethyl-8-(pyridine-4-yl)isoquinoline-1,3(2H,4H)-dione], for which the half-inhibitory concentration (IC50) on HDAC6 human recombinant was 0.079 µM; against HDAC1 it was above 10 µM.

In the case of `CN1CCN(c2ccc3c(c2)C(C)(C)C(=O)N(Cc2ccc(-c4nnc(C(F)F)o4)cn2)C3=O)CC12CC2` [Compound 80, 2-((5-(5-(difluoromethyl)-1,3,4-oxadiazole-2-yl)pyridine-2-yl)methyl)-4,4-dimethyl-6-(4-methyl-4,7-diazaspiro[2.5]octane-7-yl)isoquinoline-1,3(2H,4H)-dione], the IC50 at HDAC6 human recombinant was 0.017 µM; at HDAC1 it was above 10 µM.

In the case of `CC1(C)C(=O)N(Cc2ccc(-c3nnc(C(F)F)o3)cn2)C(=O)c2ccc(N3CCN(C4CC4)CC3)cc21` [Compound 47, 6-(4-cyclopropylpiperazine-1-yl)-2-((5-(5-(difluoromethyl)-1,3,4-oxadiazole-2-yl)pyridine-2-yl)methyl)-4,4-dimethylisoquinoline-1,3(2H,4H)-dione], the IC50 at HDAC6 human recombinant is 0.049 µM; on HDAC1, above 10 µM.

As for `Cn1c(=O)n(Cc2ccc(-c3nnc(C(F)F)o3)cn2)c(=O)c2cc(-c3cccnc3)ccc21` [Compound 91, 3-((5-(5-(difluoromethyl)-1,3,4-oxadiazole-2-yl)pyridine-2-yl)methyl)-1-methyl-6-(pyridine-3-yl)quinazoline-2,4(1H,3H)-dione], the half-maximal inhibitory concentration (IC50) at HDAC6 human recombinant is 0.033 µM; at HDAC1 it was above 10 µM.

With `CC(C)(C)OC(=O)N1CC=C(c2ccc3c(c2)C(=O)N(Cc2ccc(-c4nnc(C(F)F)o4)cn2)C(=O)C3(C)C)CC1` [Compound 53, tert-butyl 4-(2-((5-(5-(difluoromethyl)-1,3,4-oxadiazole-2-yl)pyridine-2-yl)methyl)-4,4-dimethyl-1,3-dioxo-1,2,3,4-tetrahydroisoquinoline-7-yl)-3,6-dihydropyridine-1(2H)-carboxylate], the concentration for half-maximal inhibition (IC50) at HDAC6 human recombinant is 0.427 µM; against HDAC1, above 10 µM.

Regarding `CN(C)CCn1c(=O)n(Cc2ccc(-c3nnc(C(F)F)o3)cn2)c(=O)c2ccccc21` [Compound 22, 3-((5-(5-(difluoromethyl)-1,3,4-oxadiazole-2-yl)pyridine-2-yl)methyl)-1-(2-(dimethylamino)ethyl)quinazoline-2,4(1H,3H)-dione], the IC50 at HDAC6 human recombinant was 0.21 µM; on HDAC1, above 10 µM.

`CC1(C)C(=O)N(Cc2ccc(-c3nnc(C(F)F)o3)cn2)C(=O)c2ccc(N3CCN(CC(F)(F)C(F)F)CC3)cc21` [Compound 137, 2-((5-(5-(difluoromethyl)-1,3,4-oxadiazole-2-yl)pyridine-2-yl)methyl)-4,4-dimethyl-6-(4-(2,2,3,3-tetrafluoropropyl)piperazine-1-yl)isoquinoline-1,3(2H,4H)-dione]: the IC50 was 0.089 µM on HDAC6 human recombinant and above 10 µM on HDAC1.

In the case of `CC1(C)C(=O)N(Cc2ncc(-c3nnc(C(F)F)o3)cn2)C(=O)c2ccccc21` [Compound 12, 2-((5-(5-(difluoromethyl)-1,3,4-oxadiazole-2-yl)pyrimidine-2-yl)methyl)-4,4-dimethylisoquinoline-1,3(2H,4H)-dione], the 50% inhibitory concentration (IC50) is 0.083 µM at HDAC6 human recombinant and above 10 µM on HDAC1.

On to `CC(C)CN1CCC(c2ccc3c(c2)C(=O)N(Cc2ccc(-c4nnc(C(F)F)o4)cn2)C(=O)C3(C)C)CC1` [Compound 144, 2-((5-(5-(difluoromethyl)-1,3,4-oxadiazole-2-yl)pyridine-2-yl)methyl)-7-(1-isobutylpiperidine-4-yl)-4,4-dimethylisoquinoline-1,3(2H,4H)-dione], for which the results for the IC50 at HDAC6 human recombinant and against HDAC1 were 0.034 µM and above 10 µM, respectively.

Take `O=c1c2ccccc2n(CCN2CCCCC2)c(=O)n1Cc1ccc(-c2nnc(C(F)F)o2)cn1` [Compound 9, 3-((5-(5-(difluoromethyl)-1,3,4-oxadiazole-2-yl)pyridine-2-yl)methyl)-1-(2-(piperidine-1-yl)ethyl)quinazoline-2,4(1H,3H)-dione]: the 50% inhibitory concentration (IC50) on HDAC6 human recombinant was 0.126 µM; at HDAC1, above 10 µM.

The values are drawn from patent US12440484B2, “1,3,4-oxadiazole homophthalimide derivative compounds as histone deacetylase 6 inhibitor, and the pharmaceutical composition comprising the same” (Chong Kun Dang Pharmaceutical Corp., priority 2019, dated 2025).
